Results from US20240415819A1, “MACROCYCLIC COMPOUNDS AS PROTEASOME SUBUNIT BETA TYPE-5 INHIBITORS” (Lead Discovery Center GmbH, priority 2021, published 2024).

Assays:
[1] = target: T1, β5 subunit of the human constitutive proteasome (CPS) (Homo sapiens, UniProt P28074); experiment: β5 inhibition assay, human constitutive proteasome (Suc-LLVY-AMC); assay type: biochemical; conditions: IC50 class, Suc-LLVY-AMC substrate
T1 construct: purchased Boston Biochem E-360
Procedure: The enzymatic activity of the β5 subunit of the human constitutive proteasome (CPS) is analyzed. In another assay, which differs from the assay of the human constitutive proteasome only in using the human immunoproteasome (IPS) the enzymatic activity of the β5 subunit of the human immunoproteasome (IPS) is analyzed. […] Inhibition is indicated as IC50 [nM] (“-”=not measured).

[2] = target: T2, β5 subunit of the human immunoproteasome (IPS) (Homo sapiens, UniProt P28062); experiment: β5 inhibition assay, human immunoproteasome (Suc-LLVY-AMC); assay type: biochemical; conditions: IC50 class, Suc-LLVY-AMC substrate
T2 construct: purchased Boston Biochem E-370
Procedure, shortened: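 Human immunoproteasome (1 nM final) was preincubated 10 min at RT with compound in 100 mM HEPES pH 7.5, 50 mM NaCl, 0.02% SDS, 1 mM DTT. Suc-LLVY-AMC (22.6 μM final) was then added for 4 h at RT in the dark. After stopping with 1 μM bortezomib, AMC fluorescence was read (ex 355/em 460 nm).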

[3] = test system: A549 (human lung carcinoma cell line); experiment: Glo assay of A549 cells (Table 3; ProteasomeGlo plating scheme); assay type: cell-based; conditions: Homo sapiens; A549 cells; read-out: PGLo A549
Procedure, shortened: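 IC50 values (nM) come from a cell-based chymotrypsin-like Proteasome-Glo luminescence assay. Compound exposure ran 105 min at 37° C.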

[4] = test system: Hs 746T (human gastric carcinoma cell line); experiment: 48 hr CTG viability assay, Hs 746T; assay type: cell-based; conditions: Hs746T, 48 hr CTG, read-out: Hs 746T IC50
Procedure: (§1) A viability assay was conducted for 48 hours to evaluate the inhibition of cancer cell growth by proteasome inhibitors. Briefly, the candidate cell line was plated with a 96-well plate following density of cells, respectively. 6×10^3 Cells/well for A2780 (human ovarian cancer cell line) and MDA-MB-468 (breast carcinoma), 8×10^3 Cells/well for Hs746T (human gastric carcinoma cell line), 1.1×10^4 Cells/well for MM1 S and RPMI 8226 (multiple myeloma). After 24 hours, the cells were treated with various concentrations of the compound (ranging from 0.0015 uM to 10 uM). […] After 48 hours of incubation at 37° C., 5% CO2 incubator, cells were analyzed for viability using the CellTiter-Glo Luminescent Cell Viability assay (Promega, Cat #G7570). All viability assays were performed in duplicate and Luminescence was read using an Envision (Perkin Elmer, USA). Data were analyzed using XLfit software. […] (human gastric carcinoma cell line), MM1 S (B lymphoblast cell line), and RPMI 8226 (B lymphocyte cell line, multiple myeloma). Inhibition is indicated as IC50 [nM] (“-”=not measured).

[5] = test system: MM1 S (B lymphoblast cell line); experiment: 48 hr CTG viability assay, MM1S; assay type: cell-based; conditions: Homo sapiens, 48 hr CTG, read-out: MM1S IC50
Procedure: as §1

[6] = test system: RPMI 8226 (B lymphocyte cell line, multiple myeloma); experiment: 48 hr CTG viability assay, RPMI 8226; assay type: cell-based; conditions: Homo sapiens, RPMI-8226; 48 hr CTG; read-out: RPMI-8226 IC50
Procedure: as §1

Row | IC50 [1] | IC50 [2] | IC50 [3] | IC50 [4] | IC50 [5] | IC50 [6] | Compound
1 | < 100 nM | < 100 nM | < 100 nM | < 100 nM | < 100 nM | < 100 nM | Cc1ccc2cc1CNC(=O)[C@H](CCc1ccccc1)NC(=O)[C@@H](NC(=O)N1CCc3cnccc31)CC(=O)N1CCCC(CCO2)C1 (stereo partly drawn) [Compound 703, N-((9S,12S)-5^4-methyl-8,11,14-trioxo-9-phenethyl-4-oxa-7,10-diaza-1(3,1)-piperidina-5(1,3)-benzenacyclotetradecaphane-12-yl)-2,3-dihydro-1H-pyrrolo[3,2-c]pyridine-1-carboxamide]
2 | < 100 nM | < 100 nM | < 100 nM | < 100 nM | < 100 nM | < 100 nM | Cc1ccc2cc1CNC(=O)[C@H](CCc1ccccc1)NC(=O)[C@@H](NC(=O)CCNCCC1CCCC1)CC(=O)N1CCCC(CCO2)C1 (stereo partly drawn) [Compound 700, 3-((2-cyclopentylethyl)amino)-N-((9S,12S)-5^4-methyl-8,11,14-trioxo-9-phenethyl-4-oxa-7,10-diaza-1(3,1)-piperidina-5(1,3)-benzenacyclotetradecaphane-12-yl)propanamide]
3 | < 100 nM | < 100 nM | < 100 nM | < 100 nM | < 100 nM | < 100 nM | Cc1ccc2cc1CNC(=O)[C@H](CCc1ccccc1)NC(=O)[C@@H](NC(=O)CCOCCCc1ccccc1)CC(=O)N1CCCC(CCO2)C1 (stereo partly drawn) [Compound 612, N-((9S,12S)-5^4-methyl-8,11,14-trioxo-9-phenethyl-4-oxa-7,10-diaza-1(3,1)-piperidina-5(1,3)-benzenacyclotetradecaphane-12-yl)-3-(3-phenylpropoxy)propanamide]
4 | < 100 nM | < 100 nM | < 100 nM | < 100 nM | < 100 nM | < 100 nM | Cc1ccc2cc1CNC(=O)[C@H](CCc1ccccc1)NC(=O)[C@@H](NC(=O)N1CCc3cc(O)ccc31)CC(=O)N1CCCC(CCO2)C1 (stereo partly drawn) [Compound 705, 5-hydroxy-N-((9S,12S)-5^4-methyl-8,11,14-trioxo-9-phenethyl-4-oxa-7,10-diaza-1(3,1)-piperidina-5(1,3)-benzenacyclotetradecaphane-12-yl)indoline-1-carboxamide]
5 | < 100 nM | < 100 nM | < 100 nM | < 100 nM | < 100 nM | < 100 nM | Cc1ccc2cc1CNC(=O)[C@H](CCc1ccccc1)NC(=O)[C@@H](NC(=O)CCNC1CCCC1)CC(=O)N1CCCC(CCO2)C1 (stereo partly drawn) [Compound 675, 3-(cyclopentylamino)-N-((9S,12S)-5^4-methyl-8,11,14-trioxo-9-phenethyl-4-oxa-7,10-diaza-1(3,1)-piperidina-5(1,3)-benzenacyclotetradecaphane-12-yl)propanamide]
6 | < 100 nM | < 100 nM | < 100 nM | < 100 nM | < 100 nM | < 100 nM | Cc1ccc2cc1CNC(=O)[C@H](CCc1ccccc1)NC(=O)[C@@H](NC(=O)CCNS(=O)(=O)c1ccc(OCC3CCCCC3)cc1)CC(=O)N1CCCC(CCO2)C1 (stereo partly drawn) [Compound 672, 3-((4-(cyclohexylmethoxy)phenyl)sulfonamido)-N-((9S,12S)-5^4-methyl-8,11,14-trioxo-9-phenethyl-4-oxa-7,10-diaza-1(3,1)-piperidina-5(1,3)-benzenacyclotetradecaphane-12-yl)propanamide]
7 | < 100 nM | < 100 nM | < 100 nM | 100 to 500 nM | < 100 nM | < 100 nM | Cc1ccc2cc1CNC(=O)[C@H](CCc1ccccc1)NC(=O)[C@@H](NC(=O)C1(C)CNC1)CC(=O)N1CCCC(CCO2)C1 (stereo partly drawn) [Compound 715, 3-methyl-N-((9S,12S)-5^4-methyl-8,11,14-trioxo-9-phenethyl-4-oxa-7,10-diaza-1(3,1)-piperidina-5(1,3)-benzenacyclotetradecaphane-12-yl)azetidine-3-carboxamide]
8 | < 100 nM | < 100 nM | < 100 nM | < 100 nM | < 100 nM | < 100 nM | Cc1ccc2cc1CNC(=O)[C@H](CCc1ccccc1)NC(=O)[C@@H](NC(=O)CCOCCc1ccccc1)CC(=O)N1CCCC(CCO2)C1 (stereo partly drawn) [Compound 618, N-((9S,12S)-5^4-methyl-8,11,14-trioxo-9-phenethyl-4-oxa-7,10-diaza-1(3,1)-piperidina-5(1,3)-benzenacyclotetradecaphane-12-yl)-3-phenethoxypropanamide]
9 | < 100 nM | < 100 nM | < 100 nM | 100 to 500 nM | < 100 nM | 100 to 500 nM | Cc1ccc2cc1CNC(=O)[C@H](CCc1ccccc1)NC(=O)[C@@H](NC(=O)Cc1ccc(N)cc1C)CCCC(=O)NCCCCO2 [Compound 718, 2-(4-amino-2-methylphenyl)-N-((12S,15S)-1^4-methyl-8,13,16-trioxo-15-phenethyl-2-oxa-7,14,17-triaza-1(1,3)-benzenacyclooctadecaphane-12-yl)acetamide]
10 | < 100 nM | < 100 nM | < 100 nM | < 100 nM | < 100 nM | < 100 nM | Cc1ccc2cc1CNC(=O)[C@H](CCc1ccccc1)NC(=O)[C@@H](NC(=O)CCN1CC3(COC3)C1)CC(=O)N1CCCC(CCO2)C1 (stereo partly drawn) [Compound 660, N-((9S,12S)-5^4-methyl-8,11,14-trioxo-9-phenethyl-4-oxa-7,10-diaza-1(3,1)-piperidina-5(1,3)-benzenacyclotetradecaphane-12-yl)-3-(2-oxa-6-azaspiro[3.3]heptan-6-yl)propanamide]
11 | < 100 nM | < 100 nM | < 100 nM | < 100 nM | < 100 nM | < 100 nM | Cc1ccc2cc1CNC(=O)[C@H](CCc1ccccc1)NC(=O)[C@@H](NC(=O)N1CCC(C)(O)CC1)CC(=O)N1CCCC(CCO2)C1 (stereo partly drawn) [Compound 676, 4-hydroxy-4-methyl-N-((9S,12S)-5^4-methyl-8,11,14-trioxo-9-phenethyl-4-oxa-7,10-diaza-1(3,1)-piperidina-5(1,3)-benzenacyclotetradecaphane-12-yl)piperidine-1-carboxamide]
12 | < 100 nM | < 100 nM | < 100 nM | < 100 nM | < 100 nM | < 100 nM | COc1ccc(CCCOCCC(=O)N[C@H]2CC(=O)N3CCCC(CCOc4ccc(C)c(c4)CNC(=O)[C@H](CCc4ccccc4)NC2=O)C3)cc1 (stereo partly drawn) [Compound 606, 3-(3-(4-methoxyphenyl)propoxy)-N-((9S,12S)-5^4-methyl-8,11,14-trioxo-9-phenethyl-4-oxa-7,10-diaza-1(3,1)-piperidina-5(1,3)-benzenacyclotetradecaphane-12-yl)propanamide]
13 | < 100 nM | < 100 nM | < 100 nM | < 100 nM | < 100 nM | < 100 nM | Cc1ccc2cc1CNC(=O)[C@H](CCc1ccccc1)NC(=O)[C@@H](NC(=O)CCOC1CC1)CC(=O)N1CCCC(CCO2)C1 (stereo partly drawn) [Compound 597, 3-cyclopropoxy-N-((9S,12S)-5^4-methyl-8,11,14-trioxo-9-phenethyl-4-oxa-7,10-diaza-1(3,1)-piperidina-5(1,3)-benzenacyclotetradecaphane-12-yl)propanamide]
14 | < 100 nM | < 100 nM | < 100 nM | < 100 nM | < 100 nM | < 100 nM | Cc1ccc2cc1CNC(=O)[C@H](CCc1ccccc1)NC(=O)[C@@H](NC(=O)CC1COC1)CC(=O)N1CCCC(CCO2)C1 (stereo partly drawn) [Compound 635, N-((9S,12S)-5^4-methyl-8,11,14-trioxo-9-phenethyl-4-oxa-7,10-diaza-1(3,1)-piperidina-5(1,3)-benzenacyclotetradecaphane-12-yl)-2-(oxetan-3-yl)acetamide]
